Test [1] relates to M. tuberculosis PC. Kind of test: MIC against M. tuberculosis strains, agar dilution. The class given is cell-based, Mycobacterium tuberculosis. The following applies: S. No. 17 Mt-, Middle Brook 7H10 + OADC, 37° C., 14-21 days. For orientation: In agar dilution the substance is mixed into plates at graded concentrations.
For test [2], the system named is M. avium ATCC 49601. Kind of test: MIC against MAC strains, agar dilution. The class given is cell-based, Mycobacterium avium. The following applies: S. No. 01 Ma-1, M. avium ATCC 49601; Middle Brook 7H10 + OADC, 37° C., 14-21 days.
Test [3] has as its system M. tuberculosis PC 4782. Briefly: MIC against M. tuberculosis strains, agar dilution. The following applies: S. No. 21 Mt-, Middle Brook 7H10 + OADC, 37° C., 14-21 days. The test is classed as cell-based, Mycobacterium tuberculosis.
In test [4] the test system is M. tuberculosis 50. Briefly: MIC against M. tuberculosis strains, agar dilution. The following applies: S. No. 12 Mt-, Middle Brook 7H10 + OADC, 37° C., 14-21 days. The class given is cell-based, Mycobacterium tuberculosis.
The test system of test [5] is M. avium AIIMS. Briefly: MIC against MAC strains, agar dilution. The test is classed as cell-based, Mycobacterium avium. Conditions: S. No. 04 Ma-4, M. avium AIIMS; Middle Brook 7H10 + OADC, 37° C., 14-21 days.
Test [6] deals with M. tuberculosis B-125. Briefly: MIC against M. tuberculosis strains, agar dilution. The class given is cell-based, Mycobacterium tuberculosis. Conditions: S. No. 11 Mt-, Middle Brook 7H10 + OADC, 37° C., 14-21 days.
Test [7] deals with M. tuberculosis PC. Kind of test: MIC against M. tuberculosis strains, agar dilution. The class given is cell-based, Mycobacterium tuberculosis. The following applies: S. No. 16 Mt-, Middle Brook 7H10 + OADC, 37° C., 14-21 days.
Test [8] has as its system M. avium intracellulare 926/98. Briefly: MIC against MAC strains, agar dilution. The class given is cell-based. Conditions: S. No. 14 Mai-6, M. avium intracellulare 926/98; Middle Brook 7H10 + OADC, 37° C., 14-21 days.
In test [9] the test system is M. tuberculosis ATCC. Briefly: MIC against M. tuberculosis strains, agar dilution. The test is classed as cell-based, Mycobacterium tuberculosis. The following applies: S. No. 03 Mt-, Middle Brook 7H10 + OADC, 37° C., 14-21 days.
The test system of test [10] is M. tuberculosis PC. Kind of test: MIC against M. tuberculosis strains, agar dilution. The test is classed as cell-based, Mycobacterium tuberculosis. Conditions: S. No. 22 Mt-, Middle Brook 7H10 + OADC, 37° C., 14-21 days.
The test system of test [11] is M. tuberculosis M-168. Kind of test: MIC against M. tuberculosis strains, agar dilution. The test is classed as cell-based, Mycobacterium tuberculosis. The following applies: S. No. 09 Mt-, Middle Brook 7H10 + OADC, 37° C., 14-21 days.
Test [12] concerns M. tuberculosis PC 4793. Kind of test: MIC against M. tuberculosis strains, agar dilution. The class given is cell-based, Mycobacterium tuberculosis. Conditions: S. No. 23 Mt-, Middle Brook 7H10 + OADC, 37° C., 14-21 days.
The test system of test [13] is M. avium ATCC 1723. Briefly: MIC against MAC strains, agar dilution. Conditions: S. No. 03 Ma-3, M. avium ATCC 1723; Middle Brook 7H10 + OADC, 37° C., 14-21 days. The test is classed as cell-based, Mycobacterium avium.
Test [14] relates to M. intracellulare ATCC 13950. Briefly: MIC against MAC strains, agar dilution. The test is classed as cell-based. Conditions: S. No. 06 Mi-1, M. intracellulare ATCC 13950; Middle Brook 7H10 + OADC, 37° C., 14-21 days.
Test [15] has as its system M. tuberculosis PC. Briefly: MIC against M. tuberculosis strains, agar dilution. The class given is cell-based, Mycobacterium tuberculosis. Conditions: S. No. 19 Mt-, Middle Brook 7H10 + OADC, 37° C., 14-21 days.
Test [16] deals with M. avium intracellulare 19/97. Kind of test: MIC against MAC strains, agar dilution. The test is classed as cell-based. The following applies: S. No. 17 Mai-10, M. avium intracellulare 19/97; Middle Brook 7H10 + OADC, 37° C., 14-21 days.

One may read the MIC as the smallest concentration in the dilution series that meets the test's criterion for growth inhibition. With `NNC(=O)c1ccncc1` [INH], the MIC was 32 µg/mL in test [1]; more than 32 µg/mL in test [2]; 0.25 µg/mL in test [3]; more than 32 µg/mL in test [4]; more than 32 µg/mL in test [5]; 0.06 µg/mL in test [6]. In addition, the minimal inhibitory concentration (MIC) in test [7] was 8.0 µg/mL; in [8], 4.0 µg/mL; in test [9], more than 32 µg/mL; in [10], more than 32 µg/mL; in test [11], 4.0 µg/mL; in test [12], more than 32 µg/mL. Moreover, the minimum inhibitory concentration (MIC) in [13] is 32 µg/mL; in test [14], more than 32 µg/mL; in [15] it was 0.25 µg/mL; in test [16], 32 µg/mL.

For `CC[C@H]1OC(=O)[C@H](C)[C@@H](O[C@H]2C[C@@](C)(OC)[C@@H](O)[C@H](C)O2)[C@H](C)[C@@H](O[C@@H]2O[C@H](C)C[C@H](N(C)C)[C@H]2O)[C@](C)(OC)C[C@@H](C)C(=O)[C@H](C)[C@@H](O)[C@]1(C)O` [CLA], the MIC is 4.0 µg/mL in test [1]; less than 0.25 µg/mL in [2]; 16 µg/mL in test [3]; 16 µg/mL in test [4]; 1.0 µg/mL in test [5]; 16 µg/mL in test [6]. The MIC in test [7] was 8.0 µg/mL; in [8], 1.0 µg/mL; in [9], 32 µg/mL; in test [10], 8.0 µg/mL; in test [11], 8.0 µg/mL; in test [12], 8.0 µg/mL. For the same molecule, the MIC in [13] was found to be 1.0 µg/mL; in test [14], 2.0 µg/mL; in test [15] it was 8.0 µg/mL; in test [16], 32 µg/mL.

Regarding `C[C@@H]1CN(c2c(F)c(N)c3c(=O)c(C(=O)O)cn(C4CC4)c3c2F)C[C@H](C)N1` [SPAR], the MIC was 8.0 µg/mL in test [1]; 0.5 µg/mL in test [2]; “≦0.125 μg/ml” in [3]; 4.0 µg/mL in [4]; 8.0 µg/mL in test [5]; “≦0.125 μg/ml” in test [6]. Besides, the minimal inhibitory concentration (MIC) in [7] is 2.0 µg/mL; in test [8], 2.0 µg/mL; in test [9], “≦0.125 μg/ml”; in test [10], 4.0 µg/mL; in [11] it was 2.0 µg/mL; in [12] it was 4.0 µg/mL. The MIC was 4.0 µg/mL in [13], 16 µg/mL in test [14], “≦0.125 μg/ml” in test [15] and 1.0 µg/mL in test [16].

Turning to `CCc1cc(C(N)=S)ccn1` [ETH], the MIC in test [1] is 32 µg/mL; in test [2] it was 4.0 µg/mL; in [3], 1.0 µg/mL; in test [4], 32 µg/mL; in test [5], 16 µg/mL; in test [6] it was 2.0 µg/mL. Further, the MIC in test [7] is 32 µg/mL; in test [8] it was 16 µg/mL; in [9] it was 2.0 µg/mL; in [10], more than 32 µg/mL; in [11], more than 32 µg/mL; in [12], more than 32 µg/mL. The MIC in test [13] worked out at 16 µg/mL; in [14], 0.5 µg/mL; in test [15], 1.0 µg/mL; in test [16], 16 µg/mL.

The values above are taken from patent US20060293307A1, “Oxazolidinone derivatives as antimicrobials” (priority 2002, published 2006).
